Laboratory results published in PubChem BioAssay (NCI).
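Assay format: 96-well plates, 48-hour exposure. GI50 is the concentration that inhibits growth by half. TGI: concentration producing complete growth inhibition.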

Experiments:
Assay in all cases: inhibition of tumour cell growth, NCI panel, 48 h
[1] = system: SK-MEL-28 melanoma
[2] = system: OVCAR-5 ovarian
[3] = system: CCRF-CEM leukemia
[4] = system: NCI-H460 lung
[5] = system: SF-295 CNS
[6] = system: SK-MEL-5 melanoma
[7] = system: MOLT-4 leukemia
[8] = system: SK-OV-3 ovarian
[9] = system: COLO 205 colon
[10] = system: T-47D breast
[11] = system: UACC-62 melanoma
[12] = system: SN12C renal
[13] = system: HCT-116 colon
[14] = system: SK-MEL-2 melanoma
[15] = system: IGROV1 ovarian
[16] = system: NCI-H23 lung
[17] = system: HOP-62 NSCLC
[18] = system: SF-539 CNS
[19] = system: HCC-2998 colon
[20] = system: HS 578T breast
[21] = system: NCI-H522 lung
[22] = system: OVCAR-3 ovarian
[23] = system: CAKI-1 renal
[24] = system: 786-0 renal
[25] = system: SF-268 CNS
[26] = system: SW-620 colon
[27] = system: A498 renal
[28] = system: NCI/ADR-RES ovarian
[29] = system: K-562 leukemia
[30] = system: MDA-MB-231 breast
[31] = system: A549 NSCLC
[32] = system: LOX IMVI melanoma
[33] = system: BT-549 breast
[34] = system: U251 CNS
[35] = system: KM12 colon
[36] = system: RPMI-8226 leukemia
[37] = system: SNB-75 CNS
[38] = system: UO-31 renal
[39] = system: PC-3 prostate
[40] = system: M14 melanoma
[41] = system: SNB-19 CNS
[42] = system: HCT-15 colon
[43] = system: OVCAR-8 ovarian
[44] = system: DU-145 prostate
[45] = system: HOP-92 NSCLC
[46] = system: HT29 colon
[47] = system: TK-10 renal
[48] = system: MCF7 breast
[49] = system: HL-60(TB) leukemia
[50] = system: SR leukemia
[51] = system: ACHN renal
[52] = system: MALME-3M melanoma
[53] = system: EKVX NSCLC
[54] = system: NCI-H226 lung
[55] = system: OVCAR-4 ovarian
[56] = system: RXF 393 renal
[57] = system: MDA-MB-435
[58] = system: UACC-257 melanoma

Compound: Nc1nn2cc(F)cnc2c1C(=O)Nc1cncc(F)c1N1CCC(C(=O)N2CCN(C3COC3)CC2)CC1
- GI50 [1]: 2950 nM
- TGI [1]: > 100 µM
- GI50 [2]: 616 nM
- TGI [2]: > 100 µM
- GI50 [3]: 33.2 nM
- GI50 [4]: 254 nM
- TGI [4]: 7.2 µM
- GI50 [5]: 238 nM
- TGI [5]: 1860 nM
- GI50 [6]: 428 nM
- TGI [6]: 1770 nM
- GI50 [7]: 71.2 nM
- TGI [7]: 762 nM
- GI50 [8]: 243 nM
- TGI [8]: 6.02 µM
- GI50 [9]: 575 nM
- TGI [9]: > 100 µM
- GI50 [10]: 2040 nM
- TGI [10]: > 100 µM
- GI50 [11]: 522 nM
- TGI [11]: 2560 nM
- GI50 [12]: 987 nM
- TGI [12]: 6.17 µM
- GI50 [13]: 942 nM
- TGI [13]: > 29.6 µM
- GI50 [14]: 194 nM
- TGI [14]: 821 nM
- GI50 [15]: 464 nM
- TGI [15]: 3.04 µM
- GI50 [16]: 60.6 nM
- TGI [16]: 498 nM
- GI50 [17]: 676 nM
- TGI [17]: 3.98 µM
- GI50 [18]: 164 nM
- TGI [18]: 571 nM
- GI50 [19]: 46.4 nM
- TGI [19]: > 100 µM
- GI50 [20]: 191 nM
- TGI [20]: 1480 nM
- GI50 [21]: 427 nM
- TGI [21]: 3.05 µM
- GI50 [22]: 854 nM
- TGI [22]: 26 µM
- GI50 [23]: 235 nM
- TGI [23]: 3.16 µM
- GI50 [24]: 277 nM
- TGI [24]: > 100 µM
- GI50 [25]: 1330 nM
- TGI [25]: > 100 µM
- GI50 [26]: 1510 nM
- TGI [26]: > 100 µM
- GI50 [27]: 181 nM
- TGI [27]: 857 nM
- GI50 [28]: 749 nM
- TGI [28]: > 48.5 µM
- GI50 [29]: 281 nM
- TGI [29]: 2740 nM
- GI50 [30]: 1930 nM
- TGI [30]: 6.37 µM
- GI50 [31]: 266 nM
- TGI [31]: > 100 µM
- GI50 [32]: 285 nM
- TGI [32]: 1550 nM
- GI50 [33]: 246 nM
- TGI [33]: 1550 nM
- GI50 [34]: 656 nM
- TGI [34]: > 100 µM
- GI50 [35]: 369 nM
- TGI [35]: > 100 µM
- GI50 [36]: 1200 nM
- GI50 [37]: 168 nM
- TGI [37]: 1500 nM
- GI50 [38]: 284 nM
- TGI [38]: 2620 nM
- GI50 [39]: 2060 nM
- TGI [39]: > 100 µM
- GI50 [40]: 154 nM
- TGI [40]: 5.4 µM
- GI50 [41]: 910 nM
- TGI [41]: 7.68 µM
- GI50 [42]: 165 nM
- TGI [42]: 4.13 µM
- GI50 [43]: 548 nM
- TGI [43]: 6.13 µM
- GI50 [44]: 469 nM
- TGI [44]: > 100 µM
- GI50 [45]: 653 nM
- TGI [45]: 13 µM
- GI50 [46]: 452 nM
- TGI [46]: > 100 µM
- GI50 [47]: 888 nM
- TGI [47]: > 69.9 µM
- GI50 [48]: 60.8 nM
- TGI [48]: > 100 µM
- GI50 [49]: 129 nM
- TGI [49]: 465 nM
- GI50 [50]: 61.9 nM
- TGI [50]: 894 nM
- GI50 [51]: 250 nM
- GI50 [52]: 608 nM
- TGI [52]: 12 µM
- GI50 [53]: 512 nM
- TGI [53]: > 100 µM
- GI50 [54]: 1170 nM
- TGI [54]: 4.45 µM
- GI50 [55]: 326 nM
- TGI [55]: 7.86 µM
- GI50 [56]: 110 nM
- TGI [56]: 778 nM
- GI50 [57]: 266 nM
- TGI [57]: 2540 nM
- GI50 [58]: 1320 nM
- TGI [58]: > 76.4 µM
